Measured values from US20240197712A1, “TGF-BETA INHIBITION FOR IMMUNODEFICIENCY VIRUS REACTIVATION FROM LATENCY, ENHANCEMENT OF IMMUNODEFICIENCY VIRUS-SPECIFIC RESPONSES AND IMMUNODEFICIENCY VIRUS CURE” (Northwestern University, priority 2022, published 2024).

Assays:
[1] = test system: SIVmac239 gag, pol and env peptides; assay: SIV-specific responses, FluoroSpot of PBMC; type: in vivo, rhesus macaques
Protocol: Cytokines in plasma (at 1:2 dilution) were measured using the NHP Cytokine 24-Plex kit by Meso Scale Diagnostics (MSD) according to manufacturer instructions. Frozen PBMC collected at week 6 post-infection (pre-ART), right before the first galunisertib administration (BC1), at the end of cycle 1 (AC1) and at the end of cycle 3 (AC3) were thawed in AIM V medium (ThermoFisher) with benzonase (Sigma) and plated on a FluoroSpot (CTL) plate pre-activated with 70% Ethanol and IFN-γ, TNF-α and IL-2 capture solution. Gag, pol, and env 15-mer peptides (NIH AIDS Reagents program) were prepared at two times the final concentration of 2.5 μg/ml with co-stimulatory reagents anti-CD28 10 μg/ml and anti-CD49d 10 μg/ml and added to the cells in CTL-Test™ Medium. Parallel positive […] control of PMA (20 ng/ml) and ionomycin (200 ng/mL) or mock DMSO solution was also plated with the stimulatory reagents. PBMCs were added at 300,000 cells per well. After 24 hrs, the plate was washed, and incubated with detection and tertiary solutions and shipped to CTL for scanning and QC.

[2] = test system: PBMC from aviremic, ART-treated PLWH; assay: Modified quantitative viral outgrowth assay (qVOA) with LRA; type: cell-based, human
From the text: Considering that TGF-β is present in FBS, used to supplement PBMC and T cell cultures, and that PBMC from people living with HIV-1 release TGF-β in culture supernatants (56-58), we hypothesized that blocking TGF-β while reversing HIV-1 latency ex vivo from PBMC of ART-treated, aviremic individuals may lead to higher frequency of HIV-1 reactivation than in untreated cultures. To test this hypothesis, we used a modified version of the classical quantitative viral outgrowth assay (qVOA) (59). We used whole PBMC to assess potential latency reactivation from any HIV-1-infected circulating cell and not only from resting CD4+ T cells (FIG. 6A). PBMC from two different sets of aviremic, ART-treated donors (Table 1) were activated with PMA (at 100 ng/ml or 10 ng/ml) and with Vorinostat (SAHA, at 1 μM) in presence of T20 and galunisertib (1 μM) or mock solution. […] Infectious unit per million cells (IUPM) were calculated based on the number of infected wells as determined by p24 ELISA (FIG. 6A). […]
PBMC were thawed and cultured in RPMI 10% FBS at 3×10^6/ml. […] 50 μl of supernatant was collected after 7, 14 and 21 days of co-culture and monitored for p24 presence by p24 ELISA (PerkinElmer). IUPM were calculated based on the number of positive wells using the IUPM calculator provided by Dr. Siliciano (76). […]

[3] = test system: SIVmac239 gag and env peptides; assay: Anti-SIV T cell responses, intracellular cytokine staining; type: in vivo, rhesus macaques; conditions: before vs after treatment
Protocol: Frozen PBMC collected right before the first galunisertib administration and right after were thawed in AIM V medium (Thermo Fisher) plated on a plate pre-coated with 2.5 μg/ml goat anti mouse (GAM) IgGs and cross linked with 10 μg/ml anti-CD28 and anti-CD49d antibodies (Sigma Aldrich). Cells were stimulated either with SIVMAC239 GAG peptide pool (2 μg/ml) or with SIVMAC239 ENV peptide pool (2 μg/ml AIDS reagents program, Division of AIDS, NIAID, NIH) or the same volume of DMSO as baseline control. Pooled cells stimulated with 1 μg/ml PMA/Ionomycin were used a positive activation control. One hour later 10 μg/ml BFA and monensin (GolgiStop, BD Biosciences) were added to each well. After 5 hours, cells were transferred to a FACS plate and stained with the LIVE/DEAD Aqua viability dye (Thermo Fisher Scientific) and antibodies against cell surface and cytokines (Table 2).

Cc1cccc(-c2nn3c(c2-c2ccnc4ccc(C(N)=O)cc24)CCC3)n1 [galunisertib, Galunisertib]
IL-2 release ([1]; end of 3rd cycle): remained unchanged | IFN-γ secretion, SIV-specific and non-specific ([1]; end of the 3rd cycle vs BC1): significant increase | TNF-α release ([1]; in response to Gag and non-specifically): increased | frequency of latency reactivation events (IUPM) ([2]; galunisertib 1 μM vs mock, PMA 100 or 10 ng/ml or Vorinostat 1 μM): significantly higher frequency | vRNA in supernatant after PMA stimulation ([2]; galunisertib-treated PBMC vs mock treated): higher levels of vRNA | frequency of cells producing multiple cytokines [3]: no increase | frequency of IFN-γ producing CD4 and CD8 T cells ([3]; gag and env peptides stimulation): significant increase
